This passage reports EC50 and inhibition results from patent US9550772B2, “Azaindole derivatives as multi kinase inhibitors” (ORIBASE PHARMA, priority 2012, dated 2017).

Read-outs that look alike come from different tables or passages of the source. Bounds are passed on as bounds.

In one assay the test system is HUVEC cells. Put plainly: In vitro cell proliferation assay (MTT). Particulars: Homo sapiens, 72 hr, read-out: EC50, anti-proliferative activity. Type of assay: cell-based. The procedure:
(§1) Cancer cell lines (5×10^3 cells per well) or HUVEC (1×10^4 cells per well) or HRMEC (1×10^4 cells per well) were distributed in 96-well plates and incubating in duplicate with escalating concentrations (10 nM to 3 μM) of compounds for 72 hr. Cell proliferation was measured using MTT (3[4,5-dimethylthiazol-2-yl]-2,5-diphenyltetrazolium bromide). The EC50 values were calculated from sigmoidal dose-response curves utilizing Prism 5.0 from Graph-Pad Software (GraphPad Software, La Jolla, Calif., USA), with values normalized to those of DMSO-treated control wells (0%) and 1% SDS control wells (100%).

In a further assay the test system is A549 cell line. Put plainly: In vitro cell proliferation assay (MTT). Particulars: Homo sapiens, A549, 72 h, read-out: EC50, anti-proliferative activity. Type of assay: cell-based. On the procedure: as §1
The next assay relates to HepG2 cell line. The assay is described as follows: In vitro cell proliferation assay (MTT). Type of assay: cell-based. The conditions noted are these: Homo sapiens, HepG2, 72 hr, EC50 ≧ 1 μM, read-out: EC50, anti-proliferative activity. The procedure: as §1
The subject of the next assay is MDA-MB-231 cell line. Put plainly: In vitro cell proliferation assay (MTT). Type of assay: cell-based. The conditions noted are these: Homo sapiens, MDA-MB-231, 72 hr, read-out: EC50, anti-proliferative activity. The procedure: as §1
Another assay deals with HeLa cell line. Put plainly: In vitro cell proliferation assay (MTT). Format: cell-based. The conditions noted are these: Homo sapiens, 72 hr, read-out: EC50, anti-proliferative activity. The procedure:
as §1

For another assay, the target named is T1, BRAF (Homo sapiens, UniProt P15056).
T1 construct: purchased Invitrogen
Put plainly: In vitro kinase assay (Z'-LYTE, Invitrogen). Format: biochemical. Particulars: compound at 100 nM, ATP Km apparent, read-out: % of inhibition of the kinase compared to the control. On the procedure: (§2) The inhibitory activity of the compounds on 7 kinases (BRAF, EGFR (ErbB1), EGFR (ErbB1) T790M L858R, FGFR2, KDR (VEGFR2), PDGFRA (PDGFR alpha), SRC) was evaluated by Invitrogen using the Z′-LYTE® technology. Briefly, the Z′-LYTE® biochemical assay employs a fluorescence-based, coupled-enzyme format and is based on the differential sensitivity of phosphorylated and non-phosphorylated peptides to proteolytic cleavage. The peptide substrate is labeled with two fluorophores—one at each end—that make up a FRET pair. A ratiometric method, which calculates the ratio (the Emission Ratio) of donor emission to acceptor emission after excitation of the donor fluorophore at 400 nm, is used to quantitate reaction progress.
(§3) The compounds are screened in 1% DMSO (final) in the well. For 10 point titrations, 3-fold serial dilutions are conducted from the starting concentration. All Peptide/Kinase Mixtures are diluted to a 2× working concentration in the appropriate Kinase Buffer. All ATP Solutions are diluted to a 4× working concentration in Kinase Buffer (50 mM HEPES pH 7.5, 0.01% BRIJ-35, 10 mM MgCl2, 1 mM EGTA). ATP Km apparent is previously determined using a Z′-LYTE® assay.
(§4) Each compound was incubated at a concentration of 100 nM and the tables 21 to 27 summarize the results obtained showing the inhibitory power of a compound.

The next assay has as its target T2, KDR (VEGFR2) (Homo sapiens, UniProt P35968).
T2 construct: purchased Invitrogen
Put plainly: In vitro kinase assay (Z'-LYTE, Invitrogen). Particulars: compound at 100 nM, ATP Km apparent, read-out: % of inhibition of the kinase compared to the control. Format: biochemical. On the procedure: as §2, §3, §4

A further assay concerns the target T3, EGFR (ErbB1) (Homo sapiens, UniProt P00533).
T3 construct: purchased Invitrogen
The assay is described as follows: In vitro kinase assay (Z'-LYTE, Invitrogen). Type of assay: biochemical. Particulars: compound at 100 nM, ATP Km apparent, read-out: % of inhibition of the kinase compared to the control. The procedure: as §2, §3, §4

Another assay has as its target T4, FGFR2 (Homo sapiens, UniProt P21802).
T4 construct: purchased Invitrogen
Put plainly: In vitro kinase assay (Z'-LYTE, Invitrogen). Type of assay: biochemical. Particulars: compound at 100 nM, ATP Km apparent, read-out: % of inhibition of the kinase compared to the control. The procedure: as §2, §3, §4

The next assay concerns the target T5, PDGFRA (PDGFR alpha) (Homo sapiens, UniProt P16234).
T5 construct: purchased Invitrogen
The assay is described as follows: In vitro kinase assay (Z'-LYTE, Invitrogen). Format: biochemical. Particulars: compound at 100 nM, ATP Km apparent, read-out: % of inhibition of the kinase compared to the control. The procedure: as §2, §3, §4

A further assay concerns the target T6, SRC (Homo sapiens, UniProt P12931).
T6 construct: purchased Invitrogen
The assay is described as follows: In vitro kinase assay (Z'-LYTE, Invitrogen). The conditions noted are these: compound at 100 nM, ATP Km apparent, read-out: % of inhibition of the kinase compared to the control. Type of assay: biochemical. The procedure:
as §2, §3, §4

T1 sequence (P15056 whole entry): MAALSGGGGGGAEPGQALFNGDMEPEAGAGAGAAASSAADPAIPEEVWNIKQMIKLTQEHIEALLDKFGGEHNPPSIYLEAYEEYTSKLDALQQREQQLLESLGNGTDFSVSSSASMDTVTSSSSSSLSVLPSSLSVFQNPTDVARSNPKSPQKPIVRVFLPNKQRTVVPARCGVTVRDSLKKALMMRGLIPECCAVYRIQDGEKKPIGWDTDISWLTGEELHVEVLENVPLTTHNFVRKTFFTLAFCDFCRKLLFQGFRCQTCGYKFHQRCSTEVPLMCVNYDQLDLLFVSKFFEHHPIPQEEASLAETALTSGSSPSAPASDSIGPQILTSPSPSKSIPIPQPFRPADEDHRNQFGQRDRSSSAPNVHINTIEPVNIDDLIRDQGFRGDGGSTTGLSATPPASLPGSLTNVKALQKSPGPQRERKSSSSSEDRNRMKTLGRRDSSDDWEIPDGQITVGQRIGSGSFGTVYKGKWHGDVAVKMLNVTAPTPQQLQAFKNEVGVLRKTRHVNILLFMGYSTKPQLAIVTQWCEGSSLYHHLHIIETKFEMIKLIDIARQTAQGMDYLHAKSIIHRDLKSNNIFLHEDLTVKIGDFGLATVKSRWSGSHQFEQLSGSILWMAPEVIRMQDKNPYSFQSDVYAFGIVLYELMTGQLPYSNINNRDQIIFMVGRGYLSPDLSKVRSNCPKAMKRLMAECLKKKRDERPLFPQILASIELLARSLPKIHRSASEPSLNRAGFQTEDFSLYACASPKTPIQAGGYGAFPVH
T6 sequence (P12931 whole entry): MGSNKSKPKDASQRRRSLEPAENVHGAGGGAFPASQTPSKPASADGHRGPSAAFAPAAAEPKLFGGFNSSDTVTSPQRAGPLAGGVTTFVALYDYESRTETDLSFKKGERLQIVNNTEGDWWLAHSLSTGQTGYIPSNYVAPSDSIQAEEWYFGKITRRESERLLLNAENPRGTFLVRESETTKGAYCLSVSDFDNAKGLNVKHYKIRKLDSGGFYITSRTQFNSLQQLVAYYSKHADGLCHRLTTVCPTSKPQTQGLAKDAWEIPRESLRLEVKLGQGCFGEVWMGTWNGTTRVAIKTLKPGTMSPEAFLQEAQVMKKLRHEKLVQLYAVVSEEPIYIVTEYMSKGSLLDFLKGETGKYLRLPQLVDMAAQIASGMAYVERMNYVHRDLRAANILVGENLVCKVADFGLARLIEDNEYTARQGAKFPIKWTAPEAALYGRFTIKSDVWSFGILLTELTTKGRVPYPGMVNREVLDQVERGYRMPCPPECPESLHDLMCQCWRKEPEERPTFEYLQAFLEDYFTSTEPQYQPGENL
T4 sequence (P21802 22-821): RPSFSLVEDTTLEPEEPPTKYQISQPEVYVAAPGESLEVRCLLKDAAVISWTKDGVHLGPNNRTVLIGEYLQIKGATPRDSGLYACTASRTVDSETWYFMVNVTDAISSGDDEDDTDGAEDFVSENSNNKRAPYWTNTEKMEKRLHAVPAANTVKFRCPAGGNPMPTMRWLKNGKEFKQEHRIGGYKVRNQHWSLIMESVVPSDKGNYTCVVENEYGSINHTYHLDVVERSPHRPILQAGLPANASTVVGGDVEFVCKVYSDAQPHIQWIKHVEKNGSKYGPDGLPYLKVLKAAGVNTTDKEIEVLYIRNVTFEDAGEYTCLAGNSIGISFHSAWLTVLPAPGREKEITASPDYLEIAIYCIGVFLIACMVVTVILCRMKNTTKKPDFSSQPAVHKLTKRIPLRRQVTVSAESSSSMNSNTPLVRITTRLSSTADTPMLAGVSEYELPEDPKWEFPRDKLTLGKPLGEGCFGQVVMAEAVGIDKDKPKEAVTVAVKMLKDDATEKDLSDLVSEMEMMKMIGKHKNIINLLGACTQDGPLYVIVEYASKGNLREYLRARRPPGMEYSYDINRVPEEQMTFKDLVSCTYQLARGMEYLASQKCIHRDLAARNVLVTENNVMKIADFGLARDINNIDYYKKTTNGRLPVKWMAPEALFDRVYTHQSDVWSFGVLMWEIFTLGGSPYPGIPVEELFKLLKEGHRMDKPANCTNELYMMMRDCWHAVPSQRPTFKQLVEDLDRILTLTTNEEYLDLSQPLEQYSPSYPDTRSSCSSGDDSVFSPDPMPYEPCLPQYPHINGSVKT
T3 sequence (P00533 25-1210): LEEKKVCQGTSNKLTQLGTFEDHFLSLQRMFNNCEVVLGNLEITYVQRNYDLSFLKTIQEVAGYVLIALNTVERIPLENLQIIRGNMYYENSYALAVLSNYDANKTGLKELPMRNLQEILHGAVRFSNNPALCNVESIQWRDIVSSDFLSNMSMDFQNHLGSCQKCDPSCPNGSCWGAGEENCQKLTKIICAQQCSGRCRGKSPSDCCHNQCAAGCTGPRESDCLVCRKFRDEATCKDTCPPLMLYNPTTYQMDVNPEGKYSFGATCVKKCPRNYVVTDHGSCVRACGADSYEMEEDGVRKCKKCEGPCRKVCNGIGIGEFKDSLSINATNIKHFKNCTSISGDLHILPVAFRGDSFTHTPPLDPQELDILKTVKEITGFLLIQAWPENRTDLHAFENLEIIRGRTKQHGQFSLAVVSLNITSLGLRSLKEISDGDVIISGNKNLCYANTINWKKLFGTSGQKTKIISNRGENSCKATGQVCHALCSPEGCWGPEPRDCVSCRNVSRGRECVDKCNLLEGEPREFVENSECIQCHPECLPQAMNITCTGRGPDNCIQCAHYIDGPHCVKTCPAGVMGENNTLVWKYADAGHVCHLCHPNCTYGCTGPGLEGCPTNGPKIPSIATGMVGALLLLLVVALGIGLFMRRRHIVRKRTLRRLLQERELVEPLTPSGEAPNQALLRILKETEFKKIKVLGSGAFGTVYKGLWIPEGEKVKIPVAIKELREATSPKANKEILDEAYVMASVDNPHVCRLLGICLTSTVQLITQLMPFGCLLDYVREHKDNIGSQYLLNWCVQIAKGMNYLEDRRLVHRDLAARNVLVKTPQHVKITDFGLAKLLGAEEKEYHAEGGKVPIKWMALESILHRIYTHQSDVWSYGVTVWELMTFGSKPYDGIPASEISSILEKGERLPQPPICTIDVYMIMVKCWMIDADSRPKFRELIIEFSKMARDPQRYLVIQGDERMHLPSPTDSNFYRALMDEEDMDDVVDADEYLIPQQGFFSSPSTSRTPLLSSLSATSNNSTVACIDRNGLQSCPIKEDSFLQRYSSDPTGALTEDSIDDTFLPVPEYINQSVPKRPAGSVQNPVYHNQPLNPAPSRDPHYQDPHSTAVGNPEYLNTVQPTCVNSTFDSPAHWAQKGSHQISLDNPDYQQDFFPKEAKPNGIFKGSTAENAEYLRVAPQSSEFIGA
T5 sequence (P16234 24-1089): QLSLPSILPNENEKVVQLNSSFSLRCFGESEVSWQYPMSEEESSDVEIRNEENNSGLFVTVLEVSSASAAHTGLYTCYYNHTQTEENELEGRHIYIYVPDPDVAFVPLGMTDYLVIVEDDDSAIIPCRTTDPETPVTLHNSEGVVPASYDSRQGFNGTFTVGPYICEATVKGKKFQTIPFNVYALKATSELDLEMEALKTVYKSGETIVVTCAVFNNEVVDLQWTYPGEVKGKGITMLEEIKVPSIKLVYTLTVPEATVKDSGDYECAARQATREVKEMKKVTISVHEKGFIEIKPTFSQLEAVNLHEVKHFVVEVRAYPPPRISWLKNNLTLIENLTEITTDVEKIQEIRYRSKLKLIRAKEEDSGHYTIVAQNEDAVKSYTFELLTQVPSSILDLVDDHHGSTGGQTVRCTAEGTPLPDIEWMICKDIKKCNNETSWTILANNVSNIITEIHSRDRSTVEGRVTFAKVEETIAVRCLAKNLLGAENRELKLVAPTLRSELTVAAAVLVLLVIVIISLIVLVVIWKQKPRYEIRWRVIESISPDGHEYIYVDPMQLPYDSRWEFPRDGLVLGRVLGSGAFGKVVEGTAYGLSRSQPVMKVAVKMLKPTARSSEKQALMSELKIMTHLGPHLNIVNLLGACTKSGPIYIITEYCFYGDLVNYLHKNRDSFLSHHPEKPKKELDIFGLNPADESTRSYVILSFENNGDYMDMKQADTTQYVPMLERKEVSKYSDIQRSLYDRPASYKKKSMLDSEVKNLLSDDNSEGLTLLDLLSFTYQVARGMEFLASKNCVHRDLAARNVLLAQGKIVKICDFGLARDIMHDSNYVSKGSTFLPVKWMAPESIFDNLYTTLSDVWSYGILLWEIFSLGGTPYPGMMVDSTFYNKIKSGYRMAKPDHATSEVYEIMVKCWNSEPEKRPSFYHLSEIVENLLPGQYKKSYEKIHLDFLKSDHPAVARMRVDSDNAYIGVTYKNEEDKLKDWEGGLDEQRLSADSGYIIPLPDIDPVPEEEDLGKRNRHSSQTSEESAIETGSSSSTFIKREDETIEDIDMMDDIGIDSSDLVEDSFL

For orientation: EC50 means the concentration needed to bring the measured effect to its halfway point. Usually inhibition stands for the change of the read-out against control, counted positive when it falls. In the case of `COC(=O)c1cc2cc(CCc3cc(NC(=O)c4ccc(CN5CCN(C)CC5)c(C(F)(F)F)c4)ccc3Cl)cnc2[nH]1` [OR1006, 5-(2-{2-Chloro-5-[4-(4-methyl-piperazin-1-ylmethyl)-3-trifluoromethyl-benzoylamino]-phenyl}ethyl)-1H-pyrrolo[2,3-b]pyridine-2-carboxylic acid methyl ester], the EC50 in the assay on HUVEC cells (EC50 ≦ 100 nM) is not above 0.1 µM; in the assay on A549 cell line (100 nM < EC50 < 1 μM), 0.1 to 1 µM; with HepG2 cell line, not below 1 µM; in the assay on MDA-MB-231 cell line (100 nM < EC50 < 1 μM) it was 0.1 to 1 µM; in the assay on HeLa cell line (100 nM < EC50 < 1 μM) it was 0.1 to 1 µM. Moreover, the inhibition at 0.1 µM on BRAF was less than 50%; at KDR (VEGFR2), not below 50%; at EGFR (ErbB1), not below 50%; on FGFR2, not below 50%.

`COC(=O)c1cc2cc(NCCc3cccc(NC(=O)c4ccc(CN5CCN(C)CC5)c(C(F)(F)F)c4)c3)cnc2[nH]1` [OR1019, 5-(2-{3-[4-(4-Methyl-piperazin-1-ylmethyl)-3-trifluoromethyl-benzoylamino]-phenyl}-ethylamino)-1H-pyrrolo[2,3-b]pyridine-2-carboxylic acid methyl ester]: the 50% effective concentration (EC50) with HUVEC cells (EC50 ≧ 1 μM) was not below 1 µM; with A549 cell line (EC50 ≧ 1 μM) it was not below 1 µM; in the assay with HepG2 cell line, not below 1 µM; with MDA-MB-231 cell line (100 nM < EC50 < 1 μM) it was 0.1 to 1 µM; with HeLa cell line (EC50 ≧ 1 μM), not below 1 µM. In addition, the inhibition at 0.1 µM at BRAF is less than 50%; on KDR (VEGFR2), not below 50%; at EGFR (ErbB1), not below 50%; at FGFR2 it was less than 50%.

As for `COC(=O)c1cc2cc(CCc3cc(NC(=O)c4ccc(CN5CCC(N(C)C)C5)c(C(F)(F)F)c4)ccc3Cl)cnc2[nH]1` (stereo not drawn) [OR1007, 5-(2-{2-Chloro-5-[4-(3-dimethylamino-pyrrolidin-1-ylmethyl)-3-trifluoromethyl-benzoylamino]-phenyl}-ethyl)-1H-pyrrolo[2,3-b]pyridine-2-carboxylic acid methyl ester], the EC50 with HUVEC cells (100 nM < EC50 < 1 μM) is 0.1 to 1 µM; in the assay on A549 cell line (EC50 ≧ 1 μM), not below 1 µM; in the assay on HepG2 cell line, not below 1 µM; with MDA-MB-231 cell line (EC50 ≧ 1 μM) it was not below 1 µM; in the assay on HeLa cell line (EC50 ≧ 1 μM), not below 1 µM. In addition, the inhibition at 0.1 µM is less than 50% on BRAF, not below 50% at KDR (VEGFR2), not below 50% at EGFR (ErbB1) and not below 50% at FGFR2.

With `COC(=O)c1cc2cc(CCc3ccc(C)c(NC(=O)c4ccc(CN5CCC(N(C)C)C5)c(C(F)(F)F)c4)c3)cnc2[nH]1` (stereo not drawn) [OR1044, 5-(2-{5-[4-(3-Dimethylamino-pyrrolidin-1-ylmethyl)-3-trifluoromethyl-benzoylamino]-4-methyl-phenyl}-ethyl)-1H-pyrrolo[2,3-b]pyridine-2-carboxylic acid methyl ester], the EC50 in the assay on HUVEC cells (100 nM < EC50 < 1 μM) was 0.1 to 1 µM; with A549 cell line (EC50 ≧ 1 μM) it was not below 1 µM; with HepG2 cell line, not below 1 µM; in the assay on MDA-MB-231 cell line (EC50 ≧ 1 μM), not below 1 µM; in the assay on HeLa cell line (100 nM < EC50 < 1 μM) it was 0.1 to 1 µM. For the same compound, the inhibition at 0.1 µM at BRAF is less than 50%; on KDR (VEGFR2) it was not below 50%; on EGFR (ErbB1), not below 50%; on FGFR2, not below 50%.

Regarding `COC(=O)c1cc2cc(CCc3cccc(NC(=O)c4ccc5[nH]nnc5c4)c3)cnc2[nH]1` [OR0977, 5-(2-{3-[(1H-Benzotriazole-5-carbonyl)-amino]-phenyl}-ethyl)-1H-pyrrolo[2,3-b]pyridine-2-carboxylic acid methyl ester], the EC50 in the assay with HUVEC cells (EC50 ≧ 1 μM) and with HepG2 cell line was not below 1 µM throughout. Further, the inhibition at 0.1 µM on PDGFRA (PDGFR alpha), on BRAF, at KDR (VEGFR2), at SRC, on EGFR (ErbB1) and on FGFR2 was less than 50% throughout.

Consider `COC(=O)c1cc2cc(CCc3cccc(NC(=O)c4ccc5[nH]ccc5c4)c3)cnc2[nH]1` [OR0978, 5-(2-{3-[(1H-Indole-5-carbonyl)-amino]-phenyl}-ethyl)-1H-pyrrolo[2,3-b]pyridine-2-carboxylic acid methyl ester], for which the concentration for a half-maximal effect (EC50) in the assay with HUVEC cells (EC50 ≧ 1 μM) and in the assay on HepG2 cell line was not below 1 µM in each case. Further, the inhibition at 0.1 µM was not below 50% at PDGFRA (PDGFR alpha); less than 50% on BRAF; not below 50% at KDR (VEGFR2); less than 50% on SRC; less than 50% at EGFR (ErbB1); less than 50% at FGFR2.

As to `COC(=O)c1cc2cc(C=Cc3cccc(C(=O)Nc4cccc(C(F)(F)F)c4)c3)cnc2[nH]1` [OR1046, 5-{2-[3-(3-Trifluoromethyl-phenylcarbamoyl)-phenyl]-vinyl}-1H-pyrrolo[2,3-b]pyridine-2-carboxylic acid methyl ester], the EC50 in the assay on HUVEC cells (EC50 ≧ 1 μM), in the assay with A549 cell line (EC50 ≧ 1 μM), in the assay with HepG2 cell line, in the assay with MDA-MB-231 cell line (EC50 ≧ 1 μM) and in the assay with HeLa cell line (EC50 ≧ 1 μM) was not below 1 µM throughout.

With `COC(=O)c1cc2cc(CCc3cccc(CNC(=O)c4ccc(CN5CCN(C)CC5)c(C(F)(F)F)c4)c3)cnc2[nH]1` [OR1018, 5-[2-(3-{[4-(4-Methyl-piperazin-1-ylmethyl)-3-trifluoromethyl-benzoylamino]-methyl}-phenyl)-ethyl]-1H-pyrrolo[2,3-b]pyridine-2-carboxylic acid methyl ester], the EC50 in the assay on HUVEC cells (EC50 ≧ 1 μM), with A549 cell line (EC50 ≧ 1 μM), in the assay with HepG2 cell line, in the assay on MDA-MB-231 cell line (EC50 ≧ 1 μM) and in the assay with HeLa cell line (EC50 ≧ 1 μM) was not below 1 µM each time. The inhibition at 0.1 µM on BRAF was less than 50%; at KDR (VEGFR2), not below 50%; on EGFR (ErbB1), less than 50%; on FGFR2, less than 50%.

As to `COC(=O)c1cc2cc(CCc3cccc(NC(=O)c4cncc(C(F)(F)F)c4)c3)cnc2[nH]1` [OR0981, 5-(2-{3-[(5-Trifluoromethyl-pyridine-3-carbonyl)-amino]-phenyl}-ethyl)-1H-pyrrolo[2,3-b]pyridine-2-carboxylic acid methyl ester], the EC50 in the assay on HUVEC cells (EC50 ≧ 1 μM) and with HepG2 cell line was not below 1 µM throughout. Further, the inhibition at 0.1 µM on PDGFRA (PDGFR alpha) was not below 50%; on BRAF it was not below 50%; on KDR (VEGFR2), not below 50%; at SRC, not below 50%; at EGFR (ErbB1), less than 50%; on FGFR2, less than 50%.

On to `CC(=O)c1cc2cc(CCc3cc(NS(=O)(=O)c4cccc(C(F)(F)F)c4)ccc3C)cnc2[nH]1` [OR0967, N-{3-[2-(2-Acetyl-1H-pyrrolo[2,3-b]pyridin-5-yl)-ethyl]-4-methyl-phenyl}-3-trifluoromethyl-benzenesulfonamide], for which the EC50 with HUVEC cells (EC50 ≧ 1 μM) and with HepG2 cell line was not below 1 µM in each case. For the same compound, the inhibition at 0.1 µM on PDGFRA (PDGFR alpha), at BRAF, at KDR (VEGFR2), at SRC, on EGFR (ErbB1) and at FGFR2 was less than 50% in each case.

For `COC(=O)c1cc2cc(CCc3cccc(NC(=O)c4cc[nH]c4)c3)cnc2[nH]1` [OR0976, 5-(2-{3-[(1H-Pyrrole-3-carbonyl)-amino]-phenyl}-ethyl)-1H-pyrrolo[2,3-b]pyridine-2-carboxylic acid methyl ester], the EC50 in the assay on HUVEC cells (EC50 ≧ 1 μM) and with HepG2 cell line was not below 1 µM in each case. The inhibition at 0.1 µM at PDGFRA (PDGFR alpha), on BRAF, on KDR (VEGFR2), at SRC, on EGFR (ErbB1) and on FGFR2 was less than 50% in each case.
